Consider 63 compounds from PubChem BioAssay AID844 (SRMLSC, 2007).

pEC50: −log10 of the molar value. Activity calls are given as the source filed them. How the calls were made is not given here.

A word on the pEC50: it is the negative decadic logarithm of the EC50, by convention in mol/L.

The experiment concerns MRP1 cells, doxorubicin viability shift, 10 uM compound. Briefly: doxorubicin EC50 increase in MRP-1 cells, dose response, cell-based, doxorubicin EC50 shift (AID 844). Particulars: for pEC50: measured here: doxorubicin EC50 with compound.

In the case of `CCOc1ccccc1NC(=O)c1cccc(NC(=O)CC(c2ccccc2)c2ccccc2)c1`, the fold increase in Dox EC50 was 1.2 (inactive) and the negative-log EC50 (pEC50) was 5.19.

On to `O=C(NC(=S)NC(=O)c1ccccc1F)c1ccccc1F`, for which the fold increase in Dox EC50 is 1.44 (inactive) and the negative-log EC50 (pEC50) is 5.11.

On to `CCCCNc1oc(-c2ccc(OC)cc2)nc1S(=O)(=O)c1ccccc1`, for which the fold increase in Dox EC50 is 0.72 (inactive) and the pEC50 is 5.41.

As for `N#Cc1ccc(N2C(=O)[C@@H]3C(C(=O)c4ccc5ccccc5n4)=NN[C@@H]3C2=O)cc1`, the fold increase in Dox EC50 is 1.3 (inactive) and the negative-log EC50 (pEC50) is 5.15.

With `C=CCNC(=S)NNC(=O)COc1ccc(Br)cc1`, the fold increase in Dox EC50 is 0.71 (inactive) and the pEC50 is 5.42.

Consider `Cn1nccc1CNC(=O)c1ccnn1C`, for which the fold increase in Dox EC50 was 0.66 (inactive) and the pEC50 was 5.45.

Turning to `Cc1ccc(Nc2nc(CSc3nnnn3C)cs2)cc1`, the fold increase in Dox EC50 is 1.18 (inactive) and the pEC50 is 5.20.

As for `Cc1cc(C)n(CCc2nc(-c3ccc(-c4ccccc4)cc3)cs2)n1`, the fold increase in Dox EC50 is 1.82 and the pEC50 was 5.01.

For the compound `CC(C)Cn1c2c(c(O)c(C(=O)Nc3ccc(F)cc3)c1=O)CCCC2`, the fold increase in Dox EC50 is 0.95 (inactive) and the pEC50 is 5.29.

Regarding `COc1ccccc1-c1nc(C#N)c(N2CCc3ccccc3C2)o1`, the fold increase in Dox EC50 is 0.37 (inactive) and the negative logarithm of the EC50 (pEC50) is 5.70.

On to `N#Cc1nc(COc2ccc(F)cc2)oc1N1CCC(Cc2ccccc2)CC1`, for which the fold increase in Dox EC50 is 0.99 (inactive) and the negative-log EC50 (pEC50) was 5.27.

For the compound `N#Cc1nc(COc2ccccc2)oc1N1CCCCCC1`, the fold increase in Dox EC50 is 0.59 (inactive) and the negative logarithm of the EC50 (pEC50) is 5.50.

Regarding `Cc1cc2nc(-c3cccc(NC(=O)c4ccc(Br)o4)c3C)oc2cc1C`, the fold increase in Dox EC50 is 1.03 (inactive) and the pEC50 is 5.26.

With `CCOC(=O)c1ccc(NC(=O)C2CCN(C(=O)c3ccc(OC)c(OC)c3)CC2)cc1`, the fold increase in Dox EC50 is 0.99 (inactive) and the pEC50 was 5.27.

Regarding `Cc1ccccc1Cn1ccc(NC(=O)c2onc(C)c2Cl)n1`, the fold increase in Dox EC50 was 1.15 (inactive) and the negative logarithm of the EC50 (pEC50) was 5.21.

`COc1ccc(-c2cc3nc(C)cc(N4CC(C)CC(C)C4)n3n2)cc1` (stereo unspecified): the fold increase in Dox EC50 is 0.64 (inactive) and the negative logarithm of the EC50 (pEC50) was 5.46.

As to `CCc1c(C)sc(NC(=O)c2cccs2)c1C(=O)OC(C)C`, the fold increase in Dox EC50 is 0.42 (inactive) and the pEC50 is 5.65.

Take `CC(NC(=O)c1ccc(Br)cc1)c1ccc2c(c1)CCCC2` (stereo unspecified): the fold increase in Dox EC50 is 1.36 (inactive) and the negative-log EC50 (pEC50) is 5.13.

On to `CCC1SC2=NC(C)=C(C(=O)OC)C(c3cccs3)N2C1=O` (stereo unspecified), for which the fold increase in Dox EC50 is 1.1 (inactive) and the negative-log EC50 (pEC50) was 5.23.

With `Cc1ccc(COc2cccc3c2CCN(Cc2ccc(F)cc2)C3=O)cc1`, the fold increase in Dox EC50 was 1.02 (inactive) and the negative logarithm of the EC50 (pEC50) is 5.26.

For `COc1cccc(-c2csc(NC(=O)C3CC3)n2)c1`, the fold increase in Dox EC50 was 0.84 (inactive) and the pEC50 is 5.34.

Take `Cc1nnc(NC(=O)c2ccccc2Br)s1`: the fold increase in Dox EC50 was 1.05 (inactive) and the pEC50 is 5.24.

Regarding `CC1=C(C(=O)OC(C)C)C(c2cccc(F)c2)N2C(=O)C(C)SC2=N1` (stereo unspecified), the fold increase in Dox EC50 was 1.21 (inactive) and the negative logarithm of the EC50 (pEC50) is 5.18.

On to `CC(OC(=O)c1snc(C(=O)NC2CCCCC2)c1N)C(=O)NC(C)(C)C` (stereo unspecified), for which the fold increase in Dox EC50 was 1.1 (inactive) and the negative-log EC50 (pEC50) was 5.23.

Regarding `CCOc1ccccc1C(=O)OCC(=O)Nc1ccc(OC(F)F)cc1`, the fold increase in Dox EC50 was 0.93 (inactive) and the negative-log EC50 (pEC50) was 5.30.

Consider `COc1ccc(CN=C2NC(=O)CC(C(=O)Nc3ccccc3C)S2)cc1` (stereo unspecified), for which the fold increase in Dox EC50 is 1.16 (inactive) and the pEC50 is 5.20.

As for `O=C(c1ccccc1)C(Sc1ncn[nH]1)c1ccccc1` (stereo unspecified), the fold increase in Dox EC50 is 0.68 (inactive) and the pEC50 is 5.43.

Take `CC1CCC(NC(=O)Cn2c3c(c(-c4ccccc4Cl)cc2=O)CCC3)CC1` (stereo unspecified): the fold increase in Dox EC50 was 1.13 (inactive) and the negative-log EC50 (pEC50) is 5.21.

`O=C(Nc1ccc(N2CCCCC2)c(Cl)c1)c1ncn[nH]1`: the fold increase in Dox EC50 is 0.78 (inactive) and the pEC50 is 5.37.

As for `Cc1ccc(-n2c(C)nnc2SCC(=O)Nc2ccccc2)cc1`, the fold increase in Dox EC50 was 1 (inactive) and the negative-log EC50 (pEC50) was 5.27.

`Cc1ccccc1Cn1nc(C)c(NC(=O)c2noc3c2CCc2ccccc2-3)c1C`: the fold increase in Dox EC50 is 1.96 and the pEC50 was 4.98.

As to `C/C(=N\NC(=O)c1cccc(S(=O)(=O)Nc2cccc(Cl)c2)c1)c1cccs1`, the fold increase in Dox EC50 was 0.65 (inactive) and the negative logarithm of the EC50 (pEC50) was 5.46.

`COc1cc(/C=C(\C#N)c2ccccn2)ccc1OCc1ccccc1Cl`: the fold increase in Dox EC50 is 1.1 (inactive) and the negative logarithm of the EC50 (pEC50) is 5.23.

As to `Cc1c(N2C(=O)/C(=C/c3ccccc3)SC2=S)c(=O)n(-c2ccccc2)n1C`, the fold increase in Dox EC50 was 0.58 (inactive) and the pEC50 is 5.50.

Turning to `Cc1cccc2cc(CN(Cc3cccs3)C(=S)NCc3ccco3)c(=O)[nH]c12`, the fold increase in Dox EC50 is 0.41 (inactive) and the negative logarithm of the EC50 (pEC50) was 5.66.

Take `O=C(NNC(=O)c1cccc(S(=O)(=O)N2CCN(c3ccccc3)CC2)c1)c1ccc(Cl)cc1`: the fold increase in Dox EC50 was 1.47 (inactive) and the pEC50 is 5.10.

Take `O=C(CC1SC(=O)N(c2ccccc2)C1=O)Nc1ccccc1` (stereo unspecified): the fold increase in Dox EC50 is 1.19 (inactive) and the negative logarithm of the EC50 (pEC50) was 5.19.

Turning to `Cc1ccc(C)c(N2CCN(C(=O)Cc3ccc(-n4c(=O)[nH]c5ccsc5c4=O)cc3)CC2)c1`, the fold increase in Dox EC50 was 0.58 (inactive) and the pEC50 was 5.51.

Consider `Cc1ccc(/C=N/NC(=O)CSCc2ccc(Cl)cc2)cc1`, for which the fold increase in Dox EC50 was 1.19 (inactive) and the pEC50 is 5.19.

For `O=C1Cc2ccccc2C(=O)N1CCc1ccccc1`, the fold increase in Dox EC50 is 0.44 (inactive) and the pEC50 was 5.63.

Turning to `CCn1c(COc2ccc(C)cc2)nnc1SCc1nc2ccccc2[nH]1`, the fold increase in Dox EC50 is 0.88 (inactive) and the pEC50 was 5.32.

Regarding `Cc1noc(/C=C/N(C)C)c1S(=O)(=O)N1CCCC(C(=O)NCc2ccccc2Cl)C1` (stereo unspecified), the fold increase in Dox EC50 was 0.82 (inactive) and the pEC50 is 5.35.

On to `COc1ccc(Cl)cc1N1C(=O)C2CCCN2C1c1ccc(F)c(F)c1` (stereo unspecified), for which the fold increase in Dox EC50 is 0.85 (inactive) and the pEC50 was 5.34.

For `O=C(c1ccc(COc2ccc(Br)cc2)o1)N1N=C(C(F)F)CC1(O)C(F)F` (stereo unspecified), the fold increase in Dox EC50 was 1.06 (inactive) and the pEC50 is 5.24.

Consider `O=C(NCc1ccccc1)C(c1ccc(O)cc1)N(C(=O)Cn1nnc(-c2cccs2)n1)c1ccc2c(c1)OCCO2` (stereo unspecified), for which the fold increase in Dox EC50 was 0.86 (inactive) and the pEC50 is 5.33.

As to `Cc1ccc(NC(=O)CCSc2nnnn2-c2ccc3c(c2)OCO3)cc1C`, the fold increase in Dox EC50 was 0.74 (inactive) and the pEC50 was 5.40.

As for `Cc1ccc(N2C(=O)Nc3ccc(Br)cc3C2(O)C(=O)NCCCN(C)C)cc1C` (stereo unspecified), the fold increase in Dox EC50 was 0.69 (inactive) and the pEC50 is 5.43.

Consider `Cc1cc(NC(=O)c2cc(C(C)C)on2)nn1Cc1ccc(Cl)cc1`, for which the fold increase in Dox EC50 was 1.35 (inactive) and the negative-log EC50 (pEC50) was 5.14.

For `COc1ccc(C2CC(c3ccccc3)=NN2C(=O)COC(=O)c2cccnc2Cl)cc1` (stereo unspecified), the fold increase in Dox EC50 was 0.63 (inactive) and the pEC50 is 5.47.

As to `Cc1ccc(C)c2[nH]c(=O)c(CN(Cc3ccco3)S(=O)(=O)c3ccc4c(c3)OCCO4)cc12`, the fold increase in Dox EC50 was 0.88 (inactive) and the pEC50 was 5.32.

On to `O=C1c2ccsc2SCCN1Cc1c(Cl)cccc1Cl`, for which the fold increase in Dox EC50 is 1.19 (inactive) and the pEC50 is 5.19.

Regarding `O=C(N/N=C/c1ccccn1)c1cc(-c2ccc3ccccc3c2)n[nH]1`, the fold increase in Dox EC50 was 0.75 (inactive) and the negative logarithm of the EC50 (pEC50) was 5.39.

In the case of `N#Cc1c(-c2ccccc2)nc(SCC(=O)N(c2ccccc2)c2ccccc2)[nH]c1=O`, the fold increase in Dox EC50 is 1.08 (inactive) and the negative logarithm of the EC50 (pEC50) was 5.23.

On to `COc1ccc(-c2cc(C(=O)Nc3sc4c(c3C#N)CCCC4)c3ccccc3n2)cc1`, for which the fold increase in Dox EC50 is 1.18 (inactive) and the pEC50 is 5.20.

For the compound `O=C(Nc1cccn(Cc2c(Cl)cccc2Cl)c1=O)c1c(Cl)cccc1Cl`, the fold increase in Dox EC50 is 1.07 (inactive) and the pEC50 is 5.24.

As for `Cc1ccc(Nc2nnc(-c3ccc(N4CCOCC4)c([N+](=O)[O-])c3)c3ccccc23)cc1`, the fold increase in Dox EC50 is 0.61 (inactive) and the negative logarithm of the EC50 (pEC50) is 5.48.

In the case of `CCc1nnc(NC(=O)[C@@H](NC(=O)c2cccc(S(=O)(=O)N(CC)CC)c2)C(C)C)s1`, the fold increase in Dox EC50 is 0.4 (inactive) and the negative-log EC50 (pEC50) is 5.66.

As to `CC1=C(C(=O)Nc2ccccc2)C(c2ccc(C)o2)N2C(=O)CSC2=N1` (stereo unspecified), the fold increase in Dox EC50 was 0.84 (inactive) and the pEC50 is 5.34.

Regarding `C/C(=N\NC(=O)c1ccc(Cn2cc([N+](=O)[O-])cn2)o1)c1cccc(NC(=O)c2cccnc2)c1`, the fold increase in Dox EC50 was 0.73 (inactive) and the pEC50 was 5.41.

As to `O=C1CSC(=S)N1N=C1CCCCCC1`, the fold increase in Dox EC50 is 0.92 (inactive) and the pEC50 was 5.30.

Take `Cn1cc(Br)c(C(=O)NNC(=O)c2ccc(Cl)cc2)n1`: the fold increase in Dox EC50 was 1.23 (inactive) and the pEC50 was 5.18.

For `CC(C)(C)c1ccc(C(=O)CSc2ncn[nH]2)cc1`, the fold increase in Dox EC50 was 0.82 (inactive) and the negative logarithm of the EC50 (pEC50) was 5.36.

For `Cc1cccc(-n2ncc3c(N4CC(C)CC(C)C4)ncnc32)c1` (stereo unspecified), the fold increase in Dox EC50 is 0.6 (inactive) and the pEC50 was 5.49.
